# Experimental data reported in US11007269B2, “P53 degradation inducing molecule and pharmaceutical composition” (Tokyo University of Science Foundation, priority 2016, dated 2021).
# Tested on: senescence-associated acidic β-galactosidase (SA-β-gal) inducing TIG3 cells
# Assay: FACS analysis of SA-β-gal in doxorubicin senescence-induced TIG3 cells (anti-aging action)
# Type: cell-based, human
# Conditions: 50 μM added after doxorubicin (150 nM), 48 hours
# Experimental: In Example 5, an anti-aging action in a senescence-associated acidic β-galactosidase (SA-β-gal) inducing TIG3 cells (human embryonic fibroblast) in which TIBC-CANDDY_MLN had been added was evaluated by FACS analysis.
# TIG3 cells as normal cells were seeded in a 24-well plate at a cell density of 8×10^4 cells/well, and then cultured under conditions of 37° C. and 5 vol % CO2 for 16 hours.
# After 16 hours from cell seeding, doxorubicin was added to each well at 150 nM/well to induce cellular senescence. As a medium, a serum-free medium (37° C.) in which 1 mass % L-glutamine solution (Sigma-Aldrich) was added to D-MEM (high D-glucose, phenol red, sodium pyruvate (Wako Pure Chemical Industries, Ltd.)) was used. It is noted that the L-glutamine solution was added immediately before use. After the addition of doxorubicin, culture was performed under conditions of 37° C. and 5 vol % CO2 for 24 hours.
# After 24 hours from induction of senescence, TIBC-CANDDY_MLN was added to TIG3 cells as follows. As a medium, a serum-free medium (37° C.) in which 1 mass % L-glutamine solution (Sigma-Aldrich) was added to D-MEM (high D-glucose, phenol red, sodium pyruvate (Wako Pure Chemical Industries, Ltd.)) was used. It is noted that the L-glutamine solution was added immediately before use. A DMSO solution containing TIBC-CANDDY_MLN was mixed with the medium so that the concentration of DMSO was 1 vol %, and added to each well at 500 μL/well, and cultured under conditions of 37° C. and 5 vol % CO2 for 48 hours. As a control, DMSO was used.
# For quantification of SA-β-gal as a senescence marker, a commercially available kit (Cellular Senescence Detection Kit-SPiDER-βGal (DOJINDO LABORATORIES)) was used. […]
# A BD FACSCanto™ II (BD Biosciences) was used for flow cytometry to detect SA-β-gal labeled with FITC. […] A histogram of the FITC strength was created by an analysis software FlowJo™ (TOMY Digital Biology Co., Ltd.), and the senescence suppressing action by TIBC-CANDDY_MLN was evaluated from a shift in the histogram.
smiles,measurement,value
CC(C)C[C@H](NC(=O)CNC(=O)c1cc(Cl)ccc1Cl)C(=O)NCCCCCCC(=O)Nc1ccc(C(=O)/C=C/c2ccc(I)cc2)cc1 [TIBC-CANDDY_MLN],cellular senescence suppressing action,about 80%
same,shift to SA-β-gal (senescence marker) positive (FACS histogram),hardly observed
